Test results from PubChem BioAssay (NCI).
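Tested at 5 concentrations; 48 h exposure; 96-well plates; endpoints linearly interpolated, else capped at highest concentration. At the GI50, growth is halved. TGI marks complete inhibition of growth.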

Columns and labels:
Test in all cases: growth of human tumour cells (NCI), 48 h
[1] = tested on: 786-0 renal
[2] = tested on: A498 renal
[3] = tested on: A549 NSCLC
[4] = tested on: ACHN renal
[5] = tested on: BT-549 breast
[6] = tested on: CAKI-1 renal
[7] = tested on: CCRF-CEM leukemia
[8] = tested on: COLO 205 colon
[9] = tested on: DU-145 prostate
[10] = tested on: EKVX NSCLC
[11] = tested on: HCC-2998 colon
[12] = tested on: HCT-116 colon
[13] = tested on: HCT-15 colon
[14] = tested on: HL-60(TB) leukemia
[15] = tested on: HOP-62 NSCLC
[16] = tested on: HOP-92 NSCLC
[17] = tested on: HS 578T breast
[18] = tested on: HT29 colon
[19] = tested on: IGROV1 ovarian
[20] = tested on: K-562 leukemia
[21] = tested on: KM12 colon
[22] = tested on: LOX IMVI melanoma
[23] = tested on: M14 melanoma
[24] = tested on: MALME-3M melanoma
[25] = tested on: MCF7 breast
[26] = tested on: MDA-MB-231 breast
[27] = tested on: MDA-MB-435
[28] = tested on: MOLT-4 leukemia
[29] = tested on: NCI-H226 lung
[30] = tested on: NCI-H23 lung
[31] = tested on: NCI-H460 lung
[32] = tested on: NCI-H522 lung
[33] = tested on: NCI/ADR-RES ovarian
[34] = tested on: OVCAR-4 ovarian
[35] = tested on: OVCAR-5 ovarian
[36] = tested on: OVCAR-8 ovarian
[37] = tested on: PC-3 prostate
[38] = tested on: RPMI-8226 leukemia
[39] = tested on: RXF 393 renal
[40] = tested on: SF-268 CNS
[41] = tested on: SF-295 CNS
[42] = tested on: SF-539 CNS
[43] = tested on: SK-MEL-28 melanoma
[44] = tested on: SK-MEL-5 melanoma
[45] = tested on: SK-OV-3 ovarian
[46] = tested on: SN12C renal
[47] = tested on: SNB-19 CNS
[48] = tested on: SNB-75 CNS
[49] = tested on: SR leukemia
[50] = tested on: SW-620 colon
[51] = tested on: T-47D breast
[52] = tested on: TK-10 renal
[53] = tested on: U251 CNS
[54] = tested on: UACC-257 melanoma
[55] = tested on: UACC-62 melanoma
[56] = tested on: UO-31 renal

CC(=O)/C(N=Nc1ccc2oc(=O)ccc2c1)=C(\C)O
GI50 [1]: 5.31 µM | TGI [1]: 17.4 µM | GI50 [2]: 2.34 µM | TGI [2]: 10.4 µM | GI50 [3]: 3.2 µM | TGI [3]: 13.3 µM | GI50 [4]: 0.553 µM | TGI [4]: 11.9 µM | GI50 [5]: 3.12 µM | TGI [5]: 8.52 µM | GI50 [6]: 2.16 µM | TGI [6]: 14.6 µM | GI50 [7]: 1.65 µM | TGI [7]: 13.4 µM | GI50 [8]: 1.76 µM | TGI [8]: 3.39 µM | GI50 [9]: 4.71 µM | TGI [9]: 19 µM | GI50 [10]: 2.72 µM | TGI [10]: 15.1 µM | GI50 [11]: 3.99 µM | TGI [11]: 15.7 µM | GI50 [12]: 2.23 µM | TGI [12]: 12 µM | GI50 [13]: 0.495 µM | TGI [13]: 13.7 µM | GI50 [14]: 1.12 µM | TGI [14]: 9.15 µM | GI50 [15]: 3.62 µM | TGI [15]: 16.3 µM | GI50 [16]: 2.46 µM | TGI [16]: 7.43 µM | GI50 [17]: 3.64 µM | TGI [17]: 19 µM | GI50 [18]: 2.96 µM | TGI [18]: 12.7 µM | GI50 [19]: 2.93 µM | TGI [19]: 16.3 µM | GI50 [20]: 0.528 µM | TGI [20]: 17 µM | GI50 [21]: 3.36 µM | TGI [21]: 13.7 µM | GI50 [22]: 2.92 µM | TGI [22]: 12.4 µM | GI50 [23]: 2.77 µM | TGI [23]: 15.7 µM | GI50 [24]: 3 µM | TGI [24]: 13.6 µM | GI50 [25]: 2.49 µM | TGI [25]: 13 µM | GI50 [26]: 4.77 µM | TGI [26]: 18.1 µM | GI50 [27]: 3.88 µM | TGI [27]: 15.5 µM | GI50 [28]: 2.66 µM | TGI [28]: 12.7 µM | GI50 [29]: 2.48 µM | TGI [29]: 15.2 µM | GI50 [30]: 3.37 µM | TGI [30]: 15.8 µM | GI50 [31]: 2.11 µM | TGI [31]: 12.1 µM | GI50 [32]: 2.12 µM | TGI [32]: 10.8 µM | GI50 [33]: 0.29 µM | TGI [33]: 13.2 µM | GI50 [34]: 3.81 µM | TGI [34]: 18.7 µM | GI50 [35]: 5.04 µM | TGI [35]: 18.4 µM | GI50 [36]: 2.72 µM | TGI [36]: 13.6 µM | GI50 [37]: 2.73 µM | TGI [37]: 12.3 µM | GI50 [38]: 1.89 µM | TGI [38]: 11.4 µM | GI50 [39]: 2.99 µM | TGI [39]: 16.3 µM | GI50 [40]: 5.14 µM | TGI [40]: 21.1 µM | GI50 [41]: 2.22 µM | TGI [41]: 12.7 µM | GI50 [42]: 4.11 µM | TGI [42]: 14.1 µM | GI50 [43]: 4.53 µM | TGI [43]: 16.4 µM | GI50 [44]: 2.09 µM | TGI [44]: 4.92 µM | GI50 [45]: 4.31 µM | TGI [45]: 15.1 µM | GI50 [46]: 2.58 µM | TGI [46]: 14.7 µM | GI50 [47]: 3.39 µM | TGI [47]: 15 µM | GI50 [48]: 5 µM | TGI [48]: 18.6 µM | GI50 [49]: 1.67 µM | TGI [49]: 7.73 µM | GI50 [50]: 3.15 µM | TGI [50]: 13.7 µM | GI50 [51]: 1.84 µM | TGI [51]: 9.19 µM | GI50 [52]: 2.35 µM | TGI [52]: 12.7 µM | GI50 [53]: 2.77 µM | TGI [53]: 12.5 µM | GI50 [54]: 3.36 µM | TGI [54]: 14.8 µM | GI50 [55]: 2.64 µM | TGI [55]: 12.2 µM | GI50 [56]: 0.355 µM | TGI [56]: 11.8 µM
